This is an account of results in the supplement of paper PMC10307832.

Common to all, as to experiment: relative viability (nuclei count vs DMSO), 5 days (fraction); higher = more cells survive
Compound in the test “RAF265 + Pictilisib”: Cn1c(Nc2ccc(C(F)(F)F)cc2)nc2cc(Oc3ccnc(-c4ncc(C(F)(F)F)[nH]4)c3)ccc21 [RAF265] + CS(=O)(=O)N1CCN(Cc2cc3nc(-c4cccc5[nH]ncc45)nc(N4CCOCC4)c3s2)CC1 [Pictilisib] (partner 1 µM)
In outline: (§1)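 Medians of duplicate plates are given as relative viability. That measure is the nuclei count in treated wells divided by the count in vehicle wells. Counts were taken on 4× images of lung cancer cell lines in 1536-well plates, 5 days after pin-tool dosing the day after seeding with one drug alone or a fixed anchor-drug dose plus five library-drug doses (not always all listed) in √10 steps.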

Compound in the test “Doramapimod + Vorinostat”: Cc1ccc(-n2nc(C(C)(C)C)cc2NC(=O)Nc2ccc(OCCN3CCOCC3)c3ccccc23)cc1 [Doramapimod] + O=C(CCCCCCC(=O)Nc1ccccc1)NO [Vorinostat] (partner 1 µM)
In outline: as §1

Compound in the test “IPA-3 + Luminespib”: C1=CC=C2C(=C1)C=CC(=C2SSC3=C(C=CC4=CC=CC=C43)O)O [IPA-3] + CCNC(=O)c1noc(-c2cc(C(C)C)c(O)cc2O)c1-c1ccc(CN2CCOCC2)cc1 [Luminespib] (partner 0.01 µM)
In outline: as §1

Compound in the test “RAF265 + Vorinostat”: Cn1c(Nc2ccc(C(F)(F)F)cc2)nc2cc(Oc3ccnc(-c4ncc(C(F)(F)F)[nH]4)c3)ccc21 [RAF265] + O=C(CCCCCCC(=O)Nc1ccccc1)NO [Vorinostat] (partner 1 µM)
In outline: as §1

Consider HCC-15, for which the relative viability with RAF265 + Pictilisib (first compound 0.01 µM) amounted to 0.805; in the test with RAF265 + Pictilisib (first compound 0.03162 µM) it was 0.625; in the test with RAF265 + Pictilisib (first compound 0.1 µM) it was 0.645; with RAF265 + Pictilisib (first compound 0.3162 µM), 0.49; in the test with RAF265 + Pictilisib (first compound 1 µM), 0.333; with Doramapimod + Vorinostat (first compound 0.02 µM), 0.859. Besides, the relative viability with Doramapimod + Vorinostat (first compound 0.06325 µM) amounted to 0.901; in the test with Doramapimod + Vorinostat (first compound 0.2 µM) it was 0.834; in the test with Doramapimod + Vorinostat (first compound 0.6325 µM), 0.971; with Doramapimod + Vorinostat (first compound 2 µM), 0.807; with IPA-3 + Luminespib (first compound 0.2 µM), 0.625; with IPA-3 + Luminespib (first compound 0.6325 µM), 0.209. Also, the relative viability in the test with IPA-3 + Luminespib (first compound 2 µM) was found to be 0.253; with IPA-3 + Luminespib (first compound 6.325 µM), 0.514; with IPA-3 + Luminespib (first compound 20 µM), 0.417; with RAF265 + Vorinostat (first compound 0.01 µM), 0.803; with RAF265 + Vorinostat (first compound 0.03162 µM) it was 0.937; with RAF265 + Vorinostat (first compound 0.1 µM), 0.867. For the same cell line, the values for the relative viability with RAF265 + Vorinostat (first compound 0.3162 µM) and with RAF265 + Vorinostat (first compound 1 µM) were 0.782 and 0.551, respectively.

Consider HCC-44, for which the relative viability with RAF265 + Pictilisib (first compound 0.01 µM) worked out at 0.631; with RAF265 + Pictilisib (first compound 0.03162 µM), 0.697; with RAF265 + Pictilisib (first compound 0.1 µM), 0.55; in the test with RAF265 + Pictilisib (first compound 0.3162 µM), 0.507; with RAF265 + Pictilisib (first compound 1 µM), 0.561; with Doramapimod + Vorinostat (first compound 0.02 µM) it was 1.17. For the same cell line, the relative viability in the test with Doramapimod + Vorinostat (first compound 0.06325 µM) is 1.18; with Doramapimod + Vorinostat (first compound 0.2 µM), 1.14; with Doramapimod + Vorinostat (first compound 0.6325 µM) it was 1.14; with Doramapimod + Vorinostat (first compound 2 µM), 1.2; with IPA-3 + Luminespib (first compound 0.2 µM) it was 1.12; in the test with IPA-3 + Luminespib (first compound 0.6325 µM), 0.995. Further, the relative viability with IPA-3 + Luminespib (first compound 2 µM) is 1.21; in the test with IPA-3 + Luminespib (first compound 6.325 µM) it was 0.947; with IPA-3 + Luminespib (first compound 20 µM), 1.25; with RAF265 + Vorinostat (first compound 0.01 µM), 1.02; in the test with RAF265 + Vorinostat (first compound 0.03162 µM), 1.07; with RAF265 + Vorinostat (first compound 0.1 µM), 1.19. Besides, the relative viability with RAF265 + Vorinostat (first compound 0.3162 µM) was 1.08; with RAF265 + Vorinostat (first compound 1 µM) it was 1.06.

Regarding HCC-78, the relative viability with RAF265 + Pictilisib (first compound 0.01 µM) stood at 0.224; in the test with RAF265 + Pictilisib (first compound 0.03162 µM) it was 0.216; in the test with RAF265 + Pictilisib (first compound 0.1 µM), 0.291; in the test with RAF265 + Pictilisib (first compound 0.3162 µM), 0.171; with RAF265 + Pictilisib (first compound 1 µM), 0.145; in the test with Doramapimod + Vorinostat (first compound 0.02 µM) it was 0.456. Further, the relative viability came out at 0.369 with Doramapimod + Vorinostat (first compound 0.06325 µM); 0.492 in the test with Doramapimod + Vorinostat (first compound 0.2 µM); 0.434 with Doramapimod + Vorinostat (first compound 0.6325 µM); 0.412 with Doramapimod + Vorinostat (first compound 2 µM); 0.459 in the test with RAF265 + Vorinostat (first compound 0.01 µM); 0.485 with RAF265 + Vorinostat (first compound 0.03162 µM). For the same cell line, the relative viability with RAF265 + Vorinostat (first compound 0.1 µM) was found to be 0.464; with RAF265 + Vorinostat (first compound 0.3162 µM), 0.645; in the test with RAF265 + Vorinostat (first compound 1 µM) it was 0.406.

As for HCC-366, the relative viability with RAF265 + Pictilisib (first compound 0.01 µM) worked out at 0.18; with RAF265 + Pictilisib (first compound 0.03162 µM) it was 0.211; with RAF265 + Pictilisib (first compound 0.1 µM) it was 0.181; in the test with RAF265 + Pictilisib (first compound 0.3162 µM), 0.189; in the test with RAF265 + Pictilisib (first compound 1 µM) it was 0.147; with Doramapimod + Vorinostat (first compound 0.02 µM), 0.329. Besides, the relative viability in the test with Doramapimod + Vorinostat (first compound 0.06325 µM) amounted to 0.421; with Doramapimod + Vorinostat (first compound 0.2 µM), 0.44; with Doramapimod + Vorinostat (first compound 0.6325 µM), 0.42; with Doramapimod + Vorinostat (first compound 2 µM), 0.32; with RAF265 + Vorinostat (first compound 0.01 µM), 0.307; in the test with RAF265 + Vorinostat (first compound 0.03162 µM), 0.344. Further, the relative viability was 0.252 with RAF265 + Vorinostat (first compound 0.1 µM), 0.205 with RAF265 + Vorinostat (first compound 0.3162 µM) and 0.146 with RAF265 + Vorinostat (first compound 1 µM).

Turning to HCC-827, the relative viability with RAF265 + Pictilisib (first compound 0.01 µM) came to 0.99; with RAF265 + Pictilisib (first compound 0.03162 µM), 1.04; in the test with RAF265 + Pictilisib (first compound 0.1 µM) it was 1.05; in the test with RAF265 + Pictilisib (first compound 1 µM) it was 0.571; in the test with Doramapimod + Vorinostat (first compound 0.02 µM), 0.854; in the test with Doramapimod + Vorinostat (first compound 0.06325 µM) it was 1.02. The relative viability in the test with Doramapimod + Vorinostat (first compound 0.2 µM) is 0.805; in the test with Doramapimod + Vorinostat (first compound 0.6325 µM), 0.85; in the test with Doramapimod + Vorinostat (first compound 2 µM) it was 0.554; with IPA-3 + Luminespib (first compound 0.2 µM), 0.881; with IPA-3 + Luminespib (first compound 0.6325 µM) it was 0.588; with IPA-3 + Luminespib (first compound 2 µM), 0.627. The relative viability in the test with IPA-3 + Luminespib (first compound 6.325 µM) amounted to 0.67; with IPA-3 + Luminespib (first compound 20 µM), 0.745; with RAF265 + Vorinostat (first compound 0.01 µM), 0.866; with RAF265 + Vorinostat (first compound 0.03162 µM) it was 0.808; with RAF265 + Vorinostat (first compound 0.1 µM), 0.543; with RAF265 + Vorinostat (first compound 1 µM), 0.704.

As for HOP-62, the relative viability in the test with RAF265 + Pictilisib (first compound 0.01 µM) was determined as 0.641; with RAF265 + Pictilisib (first compound 0.1 µM), 0.726; in the test with RAF265 + Pictilisib (first compound 0.3162 µM), 0.426; with RAF265 + Pictilisib (first compound 1 µM), 0.179; with Doramapimod + Vorinostat (first compound 0.02 µM), 0.653; with Doramapimod + Vorinostat (first compound 0.06325 µM) it was 0.714. In addition, the relative viability with Doramapimod + Vorinostat (first compound 0.2 µM) was 0.721; with Doramapimod + Vorinostat (first compound 0.6325 µM) it was 0.606; with Doramapimod + Vorinostat (first compound 2 µM), 0.623; in the test with IPA-3 + Luminespib (first compound 0.2 µM), 1.12; in the test with IPA-3 + Luminespib (first compound 0.6325 µM) it was 0.919; with IPA-3 + Luminespib (first compound 2 µM) it was 0.963. Moreover, the relative viability with IPA-3 + Luminespib (first compound 6.325 µM) turned out to be 0.855; with IPA-3 + Luminespib (first compound 20 µM), 1.11; with RAF265 + Vorinostat (first compound 0.01 µM), 0.664; with RAF265 + Vorinostat (first compound 0.03162 µM) it was 0.542; with RAF265 + Vorinostat (first compound 0.1 µM) it was 0.56; with RAF265 + Vorinostat (first compound 0.3162 µM) it was 0.507. Moreover, the relative viability with RAF265 + Vorinostat (first compound 1 µM) stood at 0.332.

Turning to IA-LM, the relative viability came out at 0.334 in the test with RAF265 + Pictilisib (first compound 0.01 µM); 0.402 with RAF265 + Pictilisib (first compound 0.03162 µM); 0.341 in the test with RAF265 + Pictilisib (first compound 0.1 µM); 0.336 in the test with RAF265 + Pictilisib (first compound 0.3162 µM); 0.186 in the test with RAF265 + Pictilisib (first compound 1 µM); 0.988 with Doramapimod + Vorinostat (first compound 0.02 µM). For the same cell line, the relative viability in the test with Doramapimod + Vorinostat (first compound 0.06325 µM) was 0.868; in the test with Doramapimod + Vorinostat (first compound 0.2 µM), 0.86; in the test with Doramapimod + Vorinostat (first compound 2 µM), 0.745; with RAF265 + Vorinostat (first compound 0.01 µM), 1.06; with RAF265 + Vorinostat (first compound 0.03162 µM), 0.779; with RAF265 + Vorinostat (first compound 0.1 µM) it was 0.895. Besides, the figures for the relative viability with RAF265 + Vorinostat (first compound 0.3162 µM) and with RAF265 + Vorinostat (first compound 1 µM) were 0.925 and 0.849, respectively.
